Test results as given in patent publication US20240148673A1 (priority 2016, published 2024).
Like-named read-outs stand apart in the source and are kept apart here. Blank lines part the entries; values can stand above or below the molecule they belong to.

Experiments:
[1] = PBS (pH 7.4), n=6; cited from earlier work
[2] = in vivo, po, 6 mg
Experimental: The study compared various dose routes: sublingual (SL), per oral tablet (PO), subcutaneous (SC) and intravenous (IV). […] An Oral Irritation assessment was performed (SL film group): Predose (0) and 24 hr postdose by Draize scoring.

SMILES: CC(C)NCC(O)COc1cccc2ccccc12 (centres unmarked) [PP]
- C0 of saturated solution [1]: 588005 ± 5852 µg/mL

- average flux (30 min, 16 mg/mL): 0 μg/cm2*min
- average flux (45 min, 16 mg/mL): 0.2604 μg/cm2*min
- average flux (60 min, 16 mg/mL): 0.3125 μg/cm2*min
- average flux (120 min, 16 mg/mL): 0.6727 μg/cm2*min
- average flux (180 min, 16 mg/mL): 1.076 μg/cm2*min
- average flux (240 min, 16 mg/mL): 1.029 μg/cm2*min
- average flux (300 min, 16 mg/mL): 1.25 μg/cm2*min
- Average Steady State flux (360 min, 4 mg/mL): 0.167 ug/cm2*min
- Average Steady State flux (360 min, 8 mg/mL): 0.466 ug/cm2*min
- Average Steady State flux (360 min, 16 mg/mL): 1.317 ug/cm2*min
- average flux (360 min, 16 mg/mL): 1.385 μg/cm2*min
- Average Steady State flux (360 min, 100 mg/mL): 2.942 ug/cm2*min
SMILES: CNC[C@H](O)c1ccc(O)c(O)c1 [Epinephrine Bitartrate]

- DIPI Tmax [2]: 0 h
SMILES: CNC[C@H](O)c1ccc(OC(=O)C(C)(C)C)c(OC(=O)C(C)(C)C)c1 (racemic) [dipivefrin]
